According to US20150366839A1, “Schisantherin A for the treatment of neurodegenerative diseases” (priority 2014, published 2015):

Columns and labels:
[1] = system: intracellular NO in SH-SY5Y cells; test: 6-OHDA-induced NO production (DAF-FM diacetate); assay type: cell-based, Human
Description: Intracellular NO was evaluated by using the fluorescent probe 4-amino-5-methylamino-2′,7′-difluorofluoresecin diacetate (DAF-FM diacetate), which is cell-permeant and diffuses passively across cellular membranes. Once inside the cells, DAF-FM diacetate is deacetylated by intracellular esterases to DAF-FM. DAF-FM is essentially non-fluorescent until DAF-FM reacts with NO. Thus, it can be used to quantify intracellular NO production. The cells were seeded in 96-well, black bottom-clear plates. […] The cells were then washed twice in PBS and the fluorescence was evaluated in a multi-label counter at an excitation wavelength of 495 nm and an emission wavelength of 515 nm. The increase in fluorescence for each treatment was calculated as the relative fluorescence of each treatment compared with the untreated control cells.
Augmented NO production subsequent to iNOS induction appears to play an important role in the initial phase of 6-OHDA-induced neuro-damage models in vitro and in vivo (Singh, Das et al. 2005; Lin, Uang et al. 2007; Shih, Chen et al. 2011). […] Expression of the total iNOS proteins were determined by Western blot analysis. […] Results of FIGS. 4A-C are expressed as a percentage of relative fluorescent intensity (RFI) of the Control group. ###P<0.005 versus control group; *p<0.05, **p<0.01 and *** p<0.005 versus 6-OHDA group.

Akt [2] = test: p-Akt level after 6-OHDA, Western blot; assay type: cell-based, Human
Description: (§1) After treatment, SH-SY5Y cells were washed three times with PBS and then lysis with RIPA lysis buffer containing 1% PMSF and 1% Protease Inhibitor Cocktail and incubated for 30 min on ice. Cell lysates were centrifuged at 12,500 g for 20 min at 4° C. The supernatant was separated and the amount of protein was determined using the BCA protein assay kit (Thermo Scientific Pierce, USA). Protein samples (30 μg) were separated by SDS-PAGE (10% (w/v)) polyacrylamide gel and then transferred to a polyvinylidene difluoride (PVDF) membrane (Bio-Rad, Hercules, Calif.). Subsequently, the membrane was blocked with 5% (v/v) non-fat milk in PBST (PBS containing 0.1% Tween 20) for 1 h at room temperature. The blots were incubated overnight at 4° C. with primary antibodies. After three washes with PBST, the membranes were incubated with horseradish peroxidase-conjugated secondary antibodies (1:2000) in PBST with 5% non-fat milk for 1 h at room temperature. […] Quantitative assessment of protein bands was done with Gel Doc™ XRS equipped with Quantity One software.
The inventors also investigated the contribution of the Akt pathway in the neuroprotective effects of SchiA. The inventors measured phosphorylation-Akt (p-Akt) levels after pre-treated with 60 μM SchiA for 12 h and then exposed to 400 μM 6-OHDA for another 4 h (FIGS. 6A and 6B). […]

caspase-3 = test: MPP+-induced caspase-3 activation, Western blot; assay type: cell-based, Human; conditions: 60 μM 12 h, then 2 mM MPP+ 36 h
Description: as §1
The inventors performed Western blot to measure the expression of active-form of caspase-3 and caspase-7 in SH-SY5Y cells. […] Caspase-3 activity was expressed as units per mg protein. ###p<0.005 versus control group; *p<0.05, **p<0.01 and *** p<0.005 versus MPP+ group.

Akt [3] = test: p-Akt level after MPP+, Western blot; assay type: cell-based, Human
Description: as §1, with “antibodies.” for “antibodies. After three washes with PBST, the membranes were incubated with horseradish peroxidase-conjugated secondary antibodies (1:2000) in PBST with 5% non-fat milk for 1 h at room temperature.”
The inventors also investigated the contribution of the PI3K/Akt pathway in the neuroprotective effects of SchiA. The inventors measured phosphorylation-Akt (p-Akt) levels after pre-treated with 60 μM SchiA for 12 h and then exposed to 2 mM MPP for another 36 h. […] To further validate whether the activation of PI3K/Akt signaling pathway, the inventors determined the blocking effect of PI3K/Akt inhibitor such as AKT inhibitor IV on the in vitro neuroprotective effect of SchiA. […]

zebrafish larvae = conditions: 2.5-10 μM with 10 μM MPTP, 4 days, 10 min session
Description: The wild type zebrafish was used for this study. Embryos were collected after natural spawning, staged according to standard criteria and raised synchronously at 28.5° C. in embryo medium (13.7 mM NaCl, 540 μM KCl, pH 7.4, 25 μM Na2HPO4, 44 μM KH2PO4, 300 μM CaCl2, 100 μM MgSO4, 420 μM NaHCO3, pH 7.4). Zebrafish were staged by days post fertilization (dpf) according to criteria. […] Drugs (i.e. the five lignans) were dissolved in DMSO and directly added into the zebrafish embryo medium to treat fish. […] An equal concentration of DMSO in embryo medium was used as vehicle control in each experiment.
Then the total distance of movement was defined as the distance (in cm) was recorded using a 96-well plate filled with 200 μL embryo medium in a 10 minutes long session. Zebrafish were allowed to accommodate to the environment of the system for 1 hour before the start of the data acquisition.
In this study, Zebrafish larvae at 3 dpf were exposed to 2.5-10 μM SchiA with or without 10 μM MPTP for another 4 days, and zebrafish larval co-treated with MPTP and 150 μM L-dopa or 3 μM NOM (Nomifensine) were used as positive controls. After treatment, zebrafish were collected to perform locomotion behavior test using Viewpoint Zebrabox system and total distances travelled in 10 min were calculated. […]

COc1cc2c(c(OC)c1OC)-c1c(cc3c(c1OC)OCO3)C[C@H](C)[C@](C)(O)[C@H]2OC(=O)c1ccccc1 [SchiA, Schisantherin A]
6-OHDA-induced increase in DAF-FM fluorescence (NO) ([1]; 60 μM 12 h, then 400 μM 6-OHDA 2 h): inhibited such increase in DAF-FM fluorescence | DAF-FM fluorescence intensity, compound alone ([1]; 60 μM, without 6-OHDA): no effect | 6-OHDA-induced reduction in p-Akt level (Akt [2]; 60 μM 12 h, then 400 μM 6-OHDA 4 h): prevented the reduction in p-Akt level | p-Akt level, compound alone (Akt [2]; 60 μM, without 6-OHDA): did not change | MPP+-induced caspase-3 activation (active form) (caspase-3): significant decrease | MPP+-induced down-regulation of Akt expressions (Akt [3]; 60 μM 12 h, then 2 mM MPP+ 36 h): inhibited | p-Akt level compared to control group, compound alone (Akt [3]; 60 μM, without MPP+): 2.5 fold | MPTP-induced reduction of total distance of movement (zebrafish larvae): inhibited MPTP-induced reduction of total distance of movement in zebrafish in a dose dependent manner
